Data published in publication PMC10630959, “Dissimilar Effect of P-Glycoprotein and Breast Cancer Resistance Protein Inhibition on the Distribution of Erlotinib to the Retina and Brain in Humans and Mice” (Molecular Pharmaceutics, 2023).
Entries after “also recorded” stand apart in the source; their conditions may differ. Read-outs that look alike come from different tables or passages of the source.

Experiments:
[1] = tested on: OCTs, OCTNs and OATPs at the mouse BBB; test: [^3H]erlotinib in situ carotid perfusion, brain transport with SLC transporter inhibitors; assay type: in vivo; details: 100 μM fexofenadine, 5 mM TEA, 100 μM estrone-3-sulfate, 0.5 mM ergothioneine, 5 mM L-carnitine
Experimental: (§1) Transport of [^3H]erlotinib at the luminal BRB and BBB was measured by in situ carotid perfusion.[11],[25] With this method, the vascular composition of the brain and the eye is completely substituted by an artificial fluid, whose constitution can be modified. The perfusion fluid for the in situ carotid perfusion consisted of Krebs carbonate-buffered physiological saline with 128 mM NaCl, 24 mM NaHCO3, 4.2 mM KCl, 2.4 mM NaH2PO4, 1.5 mM CaCl2, 0.9 mM MgSO4, and 9 mM D-glucose, warmed to 37 °C and gassed with 95% O2/5% CO2 to adjust the pH to 7.40. The pH of the perfusion fluid was checked and adjusted with a digital pH meter (±0.05 pH units) immediately before perfusion. Tissue accumulation of [^3H]erlotinib was measured under trans-influx zero to determine the kinetic conditions required to measure transport solely across the membrane, separating the sucrose (vascular) from the nonsucrose (tissue parenchyma) space. […] The first membrane (luminal/vascular) delimiting the sucrose space is the only kinetic interface that affects the distribution parameters of [^3H]erlotinib.
(§2) Mice were anesthetized with ketamine and xylazine (140 and 8 mg/kg, intraperitoneal), and a catheter was inserted into the right carotid artery after ligation of the appropriate vessels. Just before perfusion, the heart was cut. Perfusion started immediately at a constant flow rate of 2.5 mL/min. […] Perfusion was terminated by decapitating the mouse after 60 s. The right eye (without the optic nerve) and the right cerebral hemisphere were removed from the skull and dissected on a freezer pack. The tissues and aliquots of perfusion fluid were weighted, digested (Solvable; PerkinElmer), and mixed with Ultima-gold XR (PerkinElmer). Dual-label counting was carried out in a Tri-Carb 2810TR instrument (PerkinElmer) to measure radioactivity (disintegrations per minute, dpm). […] Therefore, radioactivity in the whole eye was assumed to represent only the posterior segment of the eye, which comprises the retina.
(§3) Calculations were performed as described previously.[11],[25] The initial transport rate, also called brain-eye clearance, expressed as Kin (μL/s/g) was selected as the main outcome parameter. The brain and eye tissue “vascular” volume (Vv; μL/g) was estimated by using the [^14C]sucrose distribution volume. The data for any mouse for which Vv was different from the normal values[25] were excluded from the analysis.

[2] = tested on: OCTs, OCTNs and OATPs at the mouse BRB; test: [^3H]erlotinib in situ carotid perfusion, retina transport with SLC transporter inhibitors; assay type: in vivo; details: 100 μM fexofenadine, 5 mM TEA, 100 μM estrone-3-sulfate, 0.5 mM ergothioneine, 5 mM L-carnitine
Experimental: as §1, §2, §3

[3] = tested on: P-gp and BCRP at the mouse BRB
[4] = design: method as in PMID 26940368, PMID 30237210; details: under the PET inhibition protocols; cited from earlier work
[5] = tested on: P-gp and BCRP at the human blood–retina barrier (BRB); test: [^11C]erlotinib PET, distribution to the human retina, baseline vs P-gp and/or BCRP inhibition; assay type: in vivo
Experimental: (§4) Medication-free male (n = 20) and female (n = 2) subjects, who were judged to be healthy based on the screening examinations (past medical history, physical examination, blood and urine tests), were enrolled into the study and allocated to the tariquidar (n = 5) or erlotinib group (n = 17).
(§5) The second scan was performed on the same day for the tariquidar group or on a separate day for the erlotinib group. […] The total administered dose of tariquidar was of 5.6 ± 0.6 mg/kg body weight. For the erlotinib group (n = 17), the second PET scan was acquired approximately 3 h after oral intake of 300 mg (n = 7), 650 mg (n = 8), or 1000 mg (n = 2) of erlotinib (Tarceva; Roche Pharma, 50 and 150 mg tablets).[22] […] In addition to the PET scans, magnetic resonance imaging (MRI) of the head (T1-weighted; Magnetom Skyra 3.0-T MRI, Siemens Medical Solutions) was performed on all participants.
(§6) As described previously,[22] serial arterial blood samples were collected during the two PET imaging sessions in both groups. Venous blood samples were collected at baseline and hourly for 8 h and at approximately 21 h after oral erlotinib intake for determination of erlotinib plasma concentrations. A gamma counter, which was cross-calibrated with the PET camera, was used to determine the radioactivity concentrations in blood and plasma aliquots.
(§7) Volume of interest (VOI) analysis was conducted for the retina on MR-to-PET coregistered images using PMOD software (version 3.6; PMOD Technologies Ltd., Zürich, Switzerland). The retina VOI was outlined in a way to avoid spillover of radioactivity from adjacent anatomic structures (e.g., major blood vessels). The volume of the retina VOI was in the range of 0.8–0.9 cm^3. None of the dimensions of the retina VOIs were much smaller than 2 times the full width at half-maximum (2 × 4.36 mm) of the employed PET scanner, meaning that partial volume effects causing an underestimation of the true radiotracer concentration in the VOI were negligible. […] Time-activity curves (TACs) were extracted from the coregistered dynamic PET images and normalized to injected radioactivity amount per body weight and expressed in units of standardized uptake value (SUV). The area under the TACs in plasma (AUCplasma), the retina (AUCretina) and the brain (AUCbrain), from 0 to 60 min after radiotracer injection, was determined with Prism 9.5.0 software (GraphPad Software, La Jolla, CA, USA).

P-gp at the human BRB = tested on: P-gp at the human BRB; design: method as in PMID 27738009; details: i.v. tariquidar co-infusion; cited from earlier work
[6] = tested on: P-gp and BCRP at the human blood–brain barrier (BBB); test: [^11C]erlotinib PET, distribution to human whole brain gray matter, baseline vs P-gp and/or BCRP inhibition
Experimental: as §4, §5, §6, §7

P-gp at the BBB = tested on: P-gp at the BBB; design: method as in PMID 25669913; details: human; i.v. tariquidar co-infusion protocol; cited from earlier work
[7] = tested on: P-gp and BCRP at the mouse BBB
[8] = design: method as in PMID 25165131; details: cited from earlier work
[9] = tested on: P-gp and BCRP at the human BRB and BBB; design: method as in PMID 34220523; details: cited from earlier work
healthy volunteers = tested on: healthy volunteers; design: method as in PMID 30237210; details: oral 1000 mg dose group; precluded inclusion of additional subjects; cited from earlier work
[10] = i.v. tariquidar infusion, p ≤ 0.05
[11] = co-perfusion with 10 μM inhibitor
[12] = co-perfusion with 20 μM inhibitor
[13] = all combined oral erlotinib dose groups, p ≤ 0.001
[14] = oral erlotinib 300 mg, p ≤ 0.05
[15] = oral erlotinib 650 mg, p ≤ 0.05
[16] = all combined oral erlotinib doses, p ≤ 0.001

## CC[N+](CC)(CC)CC [TEA, tetraethylammonium]
[1]
  significant changes in brain [^3H]erlotinib transport on co-perfusion: None
[2]
  significant changes in retina [^3H]erlotinib transport on co-perfusion: None

## [^3H]erlotinib
[3]; mouse, in vivo
  Kin at the mouse BRB relative to the BBB: approximately 2 times

## COc1cc2c(cc1OC)CN(CCc1ccc(NC(=O)c3cc(OC)c(OC)cc3NC(=O)c3cnc4ccccc4c3)cc1)CC2 [tariquidar]
[4]
  unbound plasma concentration in humans: ~0.03 µM
[5]; [10]
  change in AUCR of [^11C]erlotinib vs baseline scan: −18 ± 8%
  change in VT of [^11C]erlotinib vs baseline scan: −25 ± 8%
P-gp at the human BRB
  increase in retinal VT of (R)-[^11C]verapamil: 1.4 fold
[6]; i.v. tariquidar infusion
  change in AUCR of [^11C]erlotinib vs baseline scan: no significant changes
  change in VT of [^11C]erlotinib vs baseline scan: did not result in any significant changes; also recorded: no significant changes
P-gp at the BBB
  increase in brain distribution of (R)-[^11C]verapamil: approximately 4 fold
[7]; [11]
  change in Kin of [^3H]erlotinib vs baseline: +270%
[7]; [12]
  change in Kin of [^3H]erlotinib vs baseline: +280%

## COc1cc2ncnc(Nc3ccc(F)c(Cl)c3)c2cc1OCCCN1CCOCC1 [gefitinib]
[8]
  pKa: 5.4

## COc1cc2c(cc1OC)CN(CCc1ccc(NC(=O)c3cccc4c(=O)c5cccc(OC)c5[nH]c34)cc1)CC2 [elacridar]
[3]; mouse BRB, co-perfusion with 10 μM inhibitor
  increase in [^3H]erlotinib distribution to the retina (Kin) vs baseline: +114%
[7]; [11]
  change in Kin of [^3H]erlotinib vs baseline: +277%

## C[C@]12CC[C@@H]3c4ccc(OS(=O)(=O)O)cc4CC[C@H]3[C@@H]1CCC2=O [estrone-3-sulfate]
[1]
  significant changes in brain [^3H]erlotinib transport on co-perfusion: None
[2]
  significant changes in retina [^3H]erlotinib transport on co-perfusion: None

## COc1cc2c(cc1OC)CN(CCc1ccc(NC(=O)c3cc(OC)c(OC)cc3NC(=O)c3cnc4ccccc4c3)cc1)CC2 [[^11C]tariquidar]
[9]
  baseline distribution (VT) in the human retina relative to the human brain: 4–5 times

## C[N+](C)(C)[C@@H](Cc1c[nH]c(=S)[nH]1)C(=O)[O-] [ergothioneine]
[1]
  significant changes in brain [^3H]erlotinib transport on co-perfusion: None
[2]
  significant changes in retina [^3H]erlotinib transport on co-perfusion: None

## C/C=C/C[C@@H](C)C(=O)[C@H]1C(=O)N[C@@H](C(C)C)C(=O)N(C)CC(=O)N(C)[C@@H](CC(C)C)C(=O)N[C@@H](C(C)C)C(=O)N(C)[C@@H](CC(C)C)C(=O)N[C@@H](C)C(=O)N[C@H](C)C(=O)N(C)[C@@H](CC(C)C)C(=O)N(C)[C@@H](CC(C)C)C(=O)N(C)[C@@H](C(C)C)C(=O)N1C [valspodar]
[7]; [11]
  change in Kin of [^3H]erlotinib vs baseline: +120%

## C[N+](C)(C)C[C@H](O)CC(=O)[O-] [L-carnitine]
[1]
  significant changes in brain [^3H]erlotinib transport on co-perfusion: None
[2]
  significant changes in retina [^3H]erlotinib transport on co-perfusion: None

## C#Cc1cccc(Nc2ncnc3cc(OCCOC)c(OCCOC)cc23)c1 [erlotinib]
[4]
  unbound plasma concentration in humans: approximately 0.4 μM
[3]; mouse, two different doses (10 or 20 μM)
  effect of co-infusion of unlabeled erlotinib on Kin of [^3H]erlotinib in the retina: did not decrease
[5]; [13]
  change in AUCR of [^11C]erlotinib vs baseline scan: −31 ± 15%
  change in VT of [^11C]erlotinib vs baseline scan: −41 ± 16%
[5]; [14]
  change in AUCR of [^11C]erlotinib vs baseline scan: −34 ± 9%
  change in VT of [^11C]erlotinib vs baseline scan: −44 ± 12%
[5]; [15]
  change in AUCR of [^11C]erlotinib vs baseline scan: −31 ± 21%
  change in VT of [^11C]erlotinib vs baseline scan: −42 ± 19%
Healthy volunteers
  adverse events: skin rash
[6]; [16]
  change in AUCR of [^11C]erlotinib vs baseline scan: +15 ± 14%
  change in VT of [^11C]erlotinib vs baseline scan: +20 ± 16%
[6]; oral erlotinib 300 mg
  change in AUCR of [^11C]erlotinib vs baseline scan: no statistically significant changes
  change in VT of [^11C]erlotinib vs baseline scan: no statistically significant changes
[6]; oral erlotinib 650 mg
  change in AUCR of [^11C]erlotinib vs baseline scan: statistically significant increase
  change in VT of [^11C]erlotinib vs baseline scan: statistically significant increase
[7]; [11]
  change in Kin of [^3H]erlotinib vs baseline: +215%
[7]; [12]
  change in Kin of [^3H]erlotinib vs baseline: +340%
